This is an account of results in ChEMBL document CHEMBL1201862, “PubChem BioAssay data set” (2004).

Each structure is given as a SMILES string. Active and inactive are the calls of the source.

Assay [1] has as its target DNA dC->dU-editing enzyme APOBEC-3G (Homo sapiens, UniProt Q9HC16). In words: Dose Response confirmation of small molecule APOBEC3G DNA Deaminase Inhibitors via a fluorescence-based single-stranded DNA deaminase assay. [Related pubchem assays (depositor defined):AID493012, AID493028]. The format is functional.
Assay [2] deals with Induced myeloid leukemia cell differentiation protein Mcl-1 (Homo sapiens, UniProt Q07820). Type of assay: functional.
Induced myeloid leukemia cell differentiation protein Mcl-1, sequence (Q07820 whole entry): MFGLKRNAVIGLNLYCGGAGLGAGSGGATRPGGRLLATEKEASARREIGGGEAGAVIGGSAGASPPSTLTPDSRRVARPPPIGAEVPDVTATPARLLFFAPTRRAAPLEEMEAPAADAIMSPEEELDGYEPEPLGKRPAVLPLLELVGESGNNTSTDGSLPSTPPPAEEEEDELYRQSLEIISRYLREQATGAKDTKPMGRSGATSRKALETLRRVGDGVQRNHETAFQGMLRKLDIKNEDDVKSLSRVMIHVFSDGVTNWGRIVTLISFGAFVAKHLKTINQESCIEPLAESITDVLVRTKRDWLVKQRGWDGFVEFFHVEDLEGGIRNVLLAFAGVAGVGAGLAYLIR
Assay [3] deals with T1, Short transient receptor potential channel 4 (Mus musculus, UniProt Q9QUQ5).
T1 sequence (Q9QUQ5 whole entry): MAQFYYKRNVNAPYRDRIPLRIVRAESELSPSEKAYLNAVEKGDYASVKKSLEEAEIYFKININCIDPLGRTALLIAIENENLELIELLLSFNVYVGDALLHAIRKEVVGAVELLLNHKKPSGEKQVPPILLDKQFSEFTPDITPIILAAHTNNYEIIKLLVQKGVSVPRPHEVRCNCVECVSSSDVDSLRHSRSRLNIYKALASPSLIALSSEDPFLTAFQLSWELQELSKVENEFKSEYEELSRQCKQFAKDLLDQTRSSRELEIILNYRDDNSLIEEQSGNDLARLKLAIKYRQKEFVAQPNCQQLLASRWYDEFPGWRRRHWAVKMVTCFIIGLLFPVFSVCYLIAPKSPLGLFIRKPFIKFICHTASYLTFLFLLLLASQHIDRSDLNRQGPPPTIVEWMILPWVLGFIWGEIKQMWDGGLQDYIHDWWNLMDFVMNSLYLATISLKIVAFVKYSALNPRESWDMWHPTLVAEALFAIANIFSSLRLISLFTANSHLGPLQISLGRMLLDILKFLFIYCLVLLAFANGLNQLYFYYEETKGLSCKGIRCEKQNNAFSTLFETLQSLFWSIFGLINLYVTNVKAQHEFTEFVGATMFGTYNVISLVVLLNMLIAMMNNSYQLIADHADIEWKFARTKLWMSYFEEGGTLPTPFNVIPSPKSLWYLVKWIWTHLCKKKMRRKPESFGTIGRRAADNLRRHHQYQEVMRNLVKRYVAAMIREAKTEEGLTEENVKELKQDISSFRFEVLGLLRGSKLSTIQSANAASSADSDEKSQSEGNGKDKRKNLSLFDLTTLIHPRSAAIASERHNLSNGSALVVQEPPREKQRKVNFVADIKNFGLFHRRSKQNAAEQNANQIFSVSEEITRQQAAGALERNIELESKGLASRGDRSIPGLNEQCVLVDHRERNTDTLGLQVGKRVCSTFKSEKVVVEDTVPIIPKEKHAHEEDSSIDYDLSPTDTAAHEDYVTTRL
The assay can be described thus: mouse TRPC4 channel inhibitors, dose response, cell-based, HEK293 TRPC4/mu-opioid, Fluo-4 calcium (AID 434942).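 Note: potency of inhibitors blocking the TRPC4 calcium response.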 Type of assay: functional.

Assay [4] can be described thus: A cytotoxicity screen of small molecule inhibitors of the PhoP region in Salmonella typhi identified in the primary screen. [Related pubchem assays: 1850, 1864, 1985 ]. Type of assay: functional.
Assay [5] in a line: THP-1 cell cytotoxicity, dose response, cytotoxicity control for non-replicating M. tuberculosis project (AID 489025). Type of assay: functional.
Assay [6] concerns the target T1, Short transient receptor potential channel 4. In words: mouse TRPC4 channel activators, dose response, cell-based, HEK293 TRPC4/mu-opioid, Fluo-4 calcium (AID 434937). The format is functional.
The nature of assay [7]: inhibitors of intracellular T. cruzi replication, confirmation, NIH3T3 host cells, beta-gal luminescence (AID 2044).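 Note: intracellular parasites grown in NIH/3T3 mouse fibroblasts as host cells; luminescent beta-galactosidase reporter signal from transgenic T. cruzi replicating inside host cells; inhibitors lower the luminescence signal.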 The format is functional, cell-based.
A short description of assay [8]: cytotoxicity toward NIH3T3 fibroblasts, dose response, counter-screen, cell-based, ATP luminescence, mouse fibroblasts (AID 2010).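 Note: cells exposed to compound for about 90 hours before reading.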 Type of assay: functional.
Assay [9] relates to Streptococcus sp. 'group A'. In words: growth inhibition of control SK(-) GAS strain, dose response, counter-screen for streptokinase expression inhibitor project, luminescence, kanamycin, BacTiterGlo, confirmation (AID 1900). The format is functional, organism-based.
Assay [10] in a line: NIH-3T3 fibroblast cytotoxicity, dose response, cytotoxicity control, cell-based, fluorescence, Alamar Blue, secondary assay (AID 2327).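 Note: NIH-3T3 mouse fibroblasts cultured with fluconazole at 8 µg/mL.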 Type of assay: functional.
A further assay is described as follows: cells. The format is functional.
Assay [11] is described as follows: C. albicans growth with fluconazole, confirmation, fluorescence, retest (AID 2467). The format is functional, cell-based.
In a further assay the test system is Streptococcus. In words: Group A Streptococcus viability loss, dose response, counter-screen for streptokinase expression inhibitor project, luminescence, BacTiterGlo (AID 1915).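 Note: potency for reduction of bacterial viability or growth.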 The format is functional, organism-based.
For assay [12], the target named is T2, Rac GTPase-activating protein 1 (Homo sapiens, UniProt Q9H0H5).
T2 sequence (Q9H0H5 whole entry): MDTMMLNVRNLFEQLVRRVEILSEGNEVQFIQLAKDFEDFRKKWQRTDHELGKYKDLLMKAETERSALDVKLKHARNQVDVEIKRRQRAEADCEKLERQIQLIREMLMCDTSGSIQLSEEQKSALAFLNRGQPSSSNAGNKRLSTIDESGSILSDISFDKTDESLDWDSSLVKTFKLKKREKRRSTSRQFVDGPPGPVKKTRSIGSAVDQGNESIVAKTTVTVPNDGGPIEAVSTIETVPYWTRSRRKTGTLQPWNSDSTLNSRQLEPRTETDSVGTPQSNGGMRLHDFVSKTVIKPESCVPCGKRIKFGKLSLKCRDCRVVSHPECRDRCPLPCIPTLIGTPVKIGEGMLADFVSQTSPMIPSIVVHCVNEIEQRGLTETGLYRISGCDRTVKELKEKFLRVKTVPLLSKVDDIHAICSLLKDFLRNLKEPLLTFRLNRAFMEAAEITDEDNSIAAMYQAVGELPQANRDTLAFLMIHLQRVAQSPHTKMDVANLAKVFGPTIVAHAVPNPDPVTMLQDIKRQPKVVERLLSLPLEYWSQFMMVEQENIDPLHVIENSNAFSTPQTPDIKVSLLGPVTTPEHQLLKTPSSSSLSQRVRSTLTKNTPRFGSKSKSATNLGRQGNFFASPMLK
In words: MgcRacGAP GTPase-activating activity inhibitors, confirmation, biochemical, ADP Hunter fluorescence, primary and confirmatory (AID 624330). Type of assay: functional.

Assay [13] concerns the target T3, Microphthalmia-associated transcription factor (Homo sapiens, UniProt O75030).
T3 sequence (O75030 whole entry): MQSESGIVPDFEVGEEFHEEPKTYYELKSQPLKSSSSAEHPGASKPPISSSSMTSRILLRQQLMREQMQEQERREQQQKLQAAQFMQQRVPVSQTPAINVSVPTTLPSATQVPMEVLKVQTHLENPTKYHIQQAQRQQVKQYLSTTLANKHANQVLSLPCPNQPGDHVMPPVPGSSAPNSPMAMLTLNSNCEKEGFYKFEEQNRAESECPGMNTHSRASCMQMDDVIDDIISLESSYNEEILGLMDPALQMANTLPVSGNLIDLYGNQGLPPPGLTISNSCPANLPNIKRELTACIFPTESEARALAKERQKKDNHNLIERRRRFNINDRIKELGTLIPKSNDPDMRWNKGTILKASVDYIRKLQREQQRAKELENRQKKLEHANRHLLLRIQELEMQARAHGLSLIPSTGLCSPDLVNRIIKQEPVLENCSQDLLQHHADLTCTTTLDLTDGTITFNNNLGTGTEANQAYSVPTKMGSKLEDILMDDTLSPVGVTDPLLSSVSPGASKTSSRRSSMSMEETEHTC
In words: TRPM1 promoter luciferase signal decrease, dose response, MITF inhibitor project, cell-based, SK-MEL-5, cherry-picked, set 3 (AID 493073).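 Note: SK-MEL-5 melanoma cells with luciferase driven by the MITF target TRPM1 promoter.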 Type of assay: functional.

Assay [14] can be described thus: cytotoxicity in HEK-293T cells, dose response, cytotoxicity control for TCR NF-kB inhibitor project, luminescence, T-cell screen hits (AID 489026).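 Note: cells exposed to compound about 14 hours before the viability readout.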 The format is functional, cell-based.

DNA dC->dU-editing enzyme APOBEC-3G, sequence (Q9HC16 whole entry): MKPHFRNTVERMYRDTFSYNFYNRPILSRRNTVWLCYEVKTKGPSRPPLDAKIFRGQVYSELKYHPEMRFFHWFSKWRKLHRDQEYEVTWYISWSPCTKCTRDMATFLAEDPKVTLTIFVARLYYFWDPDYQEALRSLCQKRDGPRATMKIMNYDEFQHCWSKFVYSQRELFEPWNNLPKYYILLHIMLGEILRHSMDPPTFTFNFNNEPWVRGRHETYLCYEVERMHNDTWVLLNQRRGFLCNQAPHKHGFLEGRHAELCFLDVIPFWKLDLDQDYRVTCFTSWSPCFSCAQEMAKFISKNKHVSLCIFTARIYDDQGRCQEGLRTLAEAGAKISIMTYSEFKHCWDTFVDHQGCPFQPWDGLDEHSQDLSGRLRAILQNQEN

For the compound `C=C(C)C(=O)Nc1cccc(C2=NOC3(C2)C[C@@H](C(N)=O)N(C(=O)[C@H]2CCC(=O)N2)C3)c1` (some centres not stated), the IC50 in assay [1] is 19.3 µM (active).

For the compound `CCCCn1c(NCc2ccc(N(C)C)cc2)nc2ccccc21`, the half-maximal inhibitory concentration (IC50) in [2] is 1.26 µM (active). Further, the half-maximal effective concentration (EC50) in assay [3] is 1.5 µM (active). Regarding `OC1(c2ccc(F)cc2)CCN(Cc2ccccc2)C1` (configuration not stated), the EC50 in assay [3] is 2.99 µM (active).

As for `Clc1cccc(CN2C3=NCCCN3c3ccccc32)c1`, in [4], the EC50 was > 50 µM (active). On the same count and under the same terms, under `Cc1cc(NS(=O)(=O)c2ccc(NC(=O)C(C)Oc3ccc4c(C)cc(=O)oc4c3)cc2)no1` (configuration not stated) stands > 50 µM (active).

For the compound `O=C(c1cccc(C(F)(F)F)c1)C1CCCN(Cc2cccn2-c2ccccn2)C1` (configuration not stated), in [3], the EC50 is 5.96 µM (active).

For the compound `O=C(NC(=S)NNC(=O)[C@H]1C[C@@H]1c1ccccc1)c1cccc(F)c1`, the CC50 in assay [5] was > 40 µM (active). The EC50 was 4.22 µM (active) in [6]; 3.91 µM (active) in assay [7]; 17.6 µM (active) in [8]; 1.89 µM (active) in assay [9]; > 160 µM (inactive) in [10]; 1.91 µM (active) in [11]. Moreover, the EC50 in the assay on Streptococcus is 3.65 µM (active). For the same compound, the IC50 in “cells” was 18.8 µM (active). Consider `CCCCN(CCCC)CCNC(=O)CSCc1ccc(C)cc1`, for which, in [4], the half-maximal effective concentration (EC50) is > 50 µM (active). Further, in [12], the IC50 was 147 µM (active). With `Cc1cc(-c2nnc(S)n2/N=C/c2ccco2)[nH]n1`, in assay [1], the half-inhibitory concentration (IC50) is 14.2 µM (active). As for `O=C(CC(=O)NCc1ccccc1)NCc1ccccc1`, in assay [4], the half-maximal effective concentration (EC50) is > 50 µM (active).

For `COCCn1c(C)cc(C(=O)CSc2nnc(C)s2)c1C`, the AC50 in [13] was 3.04 µM (active). For `CCN1CCc2c(sc(NC(=O)c3ccc(S(=O)(=O)N4CCCC4)cc3)c2C(=O)NC)C1`, the AC50 in [13] was 9.14 µM (active). Consider `Cn1c(CN2CCCC2)nc2cc(NC(=O)COc3ccc(Cl)cc3)ccc21`, for which the EC50 in assay [4] was > 50 µM (active). As to `O=C(CSc1ccccc1)Nc1nnc(COc2ccc(Cl)cc2)s1`, in assay [1], the concentration for half-maximal inhibition (IC50) is 32.3 µM (active). On to `COc1ccc(OC)c(Nc2cc(-c3ccccc3)nc(N)n2)c1`, for which the IC50 in assay [14] was > 80 µM (inactive). Besides, in assay [3], the half-maximal effective concentration (EC50) was 4.73 µM (active). On to `CC(C)Nc1c([N+](=O)[O-])nn(C)[n+]1[O-]`, for which the AC50 in [13] was 299 µM (active).
